The values that follow come from patent US8497245B2, “Trypsin-like serine protease inhibitors, their preparation and use as selective inhibitors of the clotting factors IIa and Xa” (The Medicines Company (Leipzig) GmbH, priority 2010, dated 2013).

Common to all, as to type: biochemical
Assay [1] concerns the target T1, Human Activated Protein C (h aPC) (Homo sapiens, UniProt P04070).
T1 construct: purchased Enzyme Research Laboratories
Kind of assay: Inhibition of human activated protein C (reference enzyme). To be noted: Pefachrome PCa substrate. A digest of the protocol: (§1)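 Chromogenic assays on purified enzymes, with p-nitroaniline release read at 405 nm. Ki was fitted from equilibrium rates to the competitive-inhibition rate equation. Values are nM, averaged over at least three determinations.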

Assay [2] addresses T2, Human plasmin (h plasmin) (Homo sapiens, UniProt P00747).
T2 construct: purchased Calbiochem
The assay can be described thus: Inhibition of human plasmin (reference enzyme). Particulars: Chromozym PL substrate. In a few lines: as §1

For assay [3], the target named is T3, Human plasma kallikrein (h PK) (Homo sapiens, UniProt P03952).
T3 construct: purchased Enzyme Research Laboratories
T3 sequence (P03952 391-638 limits assumed): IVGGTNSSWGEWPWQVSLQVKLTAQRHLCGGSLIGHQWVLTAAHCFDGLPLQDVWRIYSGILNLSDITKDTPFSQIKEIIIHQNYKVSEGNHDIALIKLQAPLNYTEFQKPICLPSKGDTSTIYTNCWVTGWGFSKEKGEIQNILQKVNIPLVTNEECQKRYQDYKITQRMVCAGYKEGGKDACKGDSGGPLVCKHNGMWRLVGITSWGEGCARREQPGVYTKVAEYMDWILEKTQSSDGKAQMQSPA
T3 sequence (P03952 20-390 partner limits assumed): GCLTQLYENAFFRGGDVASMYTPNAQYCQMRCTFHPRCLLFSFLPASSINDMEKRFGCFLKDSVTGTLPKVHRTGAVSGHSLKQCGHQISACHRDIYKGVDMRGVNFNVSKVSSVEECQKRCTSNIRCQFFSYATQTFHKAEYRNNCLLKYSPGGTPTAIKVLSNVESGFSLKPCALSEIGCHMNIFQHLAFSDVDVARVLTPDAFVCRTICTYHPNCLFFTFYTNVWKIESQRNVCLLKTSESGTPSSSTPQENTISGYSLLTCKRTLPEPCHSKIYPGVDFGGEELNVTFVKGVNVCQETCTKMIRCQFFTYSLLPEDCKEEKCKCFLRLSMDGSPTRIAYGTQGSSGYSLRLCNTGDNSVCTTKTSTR
The assay can be described thus: Inhibition of human plasma kallikrein (reference enzyme). Particulars: S2302 substrate. In a few lines:
as §1

For assay [4], the target named is T4, Subcomponent "s" of Human Complement Component 1 (h C1s) (Homo sapiens, UniProt P09871).
T4 construct: purchased Calbiochem
T4 sequence (P09871 438-688 limits assumed): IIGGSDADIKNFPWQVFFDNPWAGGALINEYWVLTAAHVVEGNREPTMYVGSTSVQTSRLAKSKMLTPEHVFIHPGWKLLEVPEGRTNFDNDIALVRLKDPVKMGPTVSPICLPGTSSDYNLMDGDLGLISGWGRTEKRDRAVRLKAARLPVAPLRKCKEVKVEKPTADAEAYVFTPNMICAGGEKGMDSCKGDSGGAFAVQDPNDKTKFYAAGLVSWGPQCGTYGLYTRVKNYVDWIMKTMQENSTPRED
T4 sequence (P09871 16-437 partner limits assumed): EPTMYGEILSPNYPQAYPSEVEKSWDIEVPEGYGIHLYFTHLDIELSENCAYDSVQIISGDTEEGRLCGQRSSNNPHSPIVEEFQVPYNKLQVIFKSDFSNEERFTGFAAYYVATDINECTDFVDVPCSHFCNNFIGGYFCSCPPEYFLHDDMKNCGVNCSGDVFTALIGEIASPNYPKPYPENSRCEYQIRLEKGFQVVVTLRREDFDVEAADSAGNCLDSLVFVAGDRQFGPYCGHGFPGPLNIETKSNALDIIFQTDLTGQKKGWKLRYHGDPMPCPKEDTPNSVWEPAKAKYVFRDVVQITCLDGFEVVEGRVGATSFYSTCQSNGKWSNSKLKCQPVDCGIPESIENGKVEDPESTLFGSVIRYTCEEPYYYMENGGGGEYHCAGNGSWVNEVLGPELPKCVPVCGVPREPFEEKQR
The assay can be described thus: Inhibition of human C1s (reference enzyme). To be noted: S-2314 substrate; read-out: Ki h Cls. In a few lines: as §1

For a further assay, the target named is T5, human Factor Xa (Homo sapiens, UniProt P00742).
T5 construct: human Factor Xa from Enzyme Research Laboratories; purchased Enzyme Research Laboratories
T5 sequence (P00742 235-488 limits assumed): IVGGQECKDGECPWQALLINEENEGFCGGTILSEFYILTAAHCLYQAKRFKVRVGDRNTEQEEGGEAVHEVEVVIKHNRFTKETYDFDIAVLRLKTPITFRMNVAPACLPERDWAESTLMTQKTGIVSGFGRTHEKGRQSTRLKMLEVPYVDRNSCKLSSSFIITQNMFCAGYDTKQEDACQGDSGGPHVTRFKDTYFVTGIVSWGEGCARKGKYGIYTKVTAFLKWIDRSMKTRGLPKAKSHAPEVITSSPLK
T5 sequence (P00742 41-179 partner limits assumed): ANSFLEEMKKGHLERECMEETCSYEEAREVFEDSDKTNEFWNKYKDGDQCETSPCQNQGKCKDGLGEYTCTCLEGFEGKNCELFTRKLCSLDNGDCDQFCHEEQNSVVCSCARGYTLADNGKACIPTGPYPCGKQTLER
The assay can be described thus: Inhibition constants for human factor Xa, chromogenic substrate assay. To be noted: 25° C., Pefachrome FXa substrate, average of at least three determinations; read-out: Ki h FXa. A digest of the protocol:
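Kinetic chromogenic assay with purified human enzymes in 0.05 M Tris, 0.154 M NaCl, 2% ethanol at pH 8.0. Ki was derived by competitive-inhibition fitting of equilibrium p-NA release rates (A405).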

The target of assay [5] is T6, Human urinary kallikrein (h uKK) (Homo sapiens, UniProt P06870).
T6 construct: purchased Lee Biosolutions
T6 sequence (P06870 25-262): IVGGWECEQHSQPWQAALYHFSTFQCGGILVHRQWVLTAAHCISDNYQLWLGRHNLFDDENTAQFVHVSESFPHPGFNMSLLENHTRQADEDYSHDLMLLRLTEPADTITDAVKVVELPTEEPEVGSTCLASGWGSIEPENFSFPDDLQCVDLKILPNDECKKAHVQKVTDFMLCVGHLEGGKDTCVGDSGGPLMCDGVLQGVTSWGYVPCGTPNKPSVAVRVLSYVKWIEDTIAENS
The assay can be described thus: Inhibition of human urinary kallikrein (reference enzyme). Particulars: S-2266 substrate. In a few lines: as §1

The target in assay [6] is T7, Human urokinase type plasminogen activator (h u-PA) (Homo sapiens, UniProt P00749).
T7 construct: purchased MEDAC GmbH Urokinase HS medac
The assay can be described thus: Inhibition of human urokinase type plasminogen activator (reference enzyme). Particulars: H-Glu-Gly-Arg-pNA substrate. In a few lines: as §1

Assay [7] deals with T8, Subcomponent "r" of Human Complement Component 1 (h C1r) (Homo sapiens, UniProt P00736).
T8 construct: purchased Calbiochem
T8 sequence (P00736 464-705 limits assumed): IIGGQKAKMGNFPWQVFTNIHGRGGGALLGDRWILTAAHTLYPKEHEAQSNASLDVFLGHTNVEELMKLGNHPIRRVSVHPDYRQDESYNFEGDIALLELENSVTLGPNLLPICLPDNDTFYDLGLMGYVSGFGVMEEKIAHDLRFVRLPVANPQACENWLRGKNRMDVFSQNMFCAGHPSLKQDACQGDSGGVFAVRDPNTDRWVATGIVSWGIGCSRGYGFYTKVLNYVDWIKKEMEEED
T8 sequence (P00736 18-463 partner limits assumed): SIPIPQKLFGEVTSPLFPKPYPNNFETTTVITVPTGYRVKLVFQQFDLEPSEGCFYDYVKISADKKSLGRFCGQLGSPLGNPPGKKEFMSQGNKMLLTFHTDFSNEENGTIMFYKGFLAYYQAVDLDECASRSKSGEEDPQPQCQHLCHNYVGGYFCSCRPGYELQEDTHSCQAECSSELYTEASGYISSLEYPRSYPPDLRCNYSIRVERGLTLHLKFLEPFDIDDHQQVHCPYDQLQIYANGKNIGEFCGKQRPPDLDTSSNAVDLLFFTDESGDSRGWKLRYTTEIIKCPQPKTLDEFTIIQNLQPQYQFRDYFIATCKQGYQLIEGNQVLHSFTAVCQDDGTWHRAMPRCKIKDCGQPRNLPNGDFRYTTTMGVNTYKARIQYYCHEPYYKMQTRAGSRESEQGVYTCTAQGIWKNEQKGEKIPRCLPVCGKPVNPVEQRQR
Kind of assay: Inhibition of human C1r (reference enzyme). To be noted: S-2314 substrate; read-out: Ki h Clr. A digest of the protocol:
as §1

Assay [8] has as its target T9, Human tissue-type plasminogen activator (h t-PA) (Homo sapiens, UniProt P00750).
T9 construct: purchased Boehringer Ingelheim Actilyse
Kind of assay: Inhibition of human tissue-type plasminogen activator (reference enzyme). To be noted: Pefachrome tPA substrate; read-out: Ki h t-PA. As to the method: The equilibrium rates were used to calculate the inhibitor/enzyme dissociation constant (Ki values) by parameter fitting in accordance with the rate equation for competitive inhibition using GraFit (version 4 from Erithacus).
Dissociation constants were calculated as described herein.

The target in assay [9] is T10, human factor IIa (human alpha-thrombin) (Homo sapiens, UniProt P00734).
T10 construct: human alpha-thrombin from Enzyme Research Laboratories; purchased Enzyme Research Laboratories
Kind of assay: Inhibition constants for human factor IIa, chromogenic substrate assay. Particulars: 25° C., Pefachrome tPA substrate, average of at least three determinations; read-out: Ki h FIIa. A digest of the protocol:
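Each purified protease is incubated with inhibitor and chromogenic substrate in Tris-buffered saline at pH 8.0 with 2% ethanol. Proteolytic activity is measured as p-nitroaniline formation at 405 nm, and dissociation constants are obtained by fitting equilibrium rates to a competitive model.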

T1 sequence (P04070 212-450 limits assumed): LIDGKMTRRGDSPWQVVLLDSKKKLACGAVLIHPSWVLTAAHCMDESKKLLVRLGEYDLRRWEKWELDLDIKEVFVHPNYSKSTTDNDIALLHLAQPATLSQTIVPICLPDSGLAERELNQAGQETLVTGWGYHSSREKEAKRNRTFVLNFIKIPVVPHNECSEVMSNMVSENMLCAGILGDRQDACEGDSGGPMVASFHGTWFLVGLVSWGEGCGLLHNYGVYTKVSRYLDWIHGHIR
T1 sequence (P04070 43-197 partner limits assumed): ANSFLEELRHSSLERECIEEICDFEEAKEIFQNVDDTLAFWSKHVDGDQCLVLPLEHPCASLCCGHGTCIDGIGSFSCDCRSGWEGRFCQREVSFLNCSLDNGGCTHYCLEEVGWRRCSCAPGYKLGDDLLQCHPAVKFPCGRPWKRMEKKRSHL
T2 sequence (P00747 581-810 limits assumed): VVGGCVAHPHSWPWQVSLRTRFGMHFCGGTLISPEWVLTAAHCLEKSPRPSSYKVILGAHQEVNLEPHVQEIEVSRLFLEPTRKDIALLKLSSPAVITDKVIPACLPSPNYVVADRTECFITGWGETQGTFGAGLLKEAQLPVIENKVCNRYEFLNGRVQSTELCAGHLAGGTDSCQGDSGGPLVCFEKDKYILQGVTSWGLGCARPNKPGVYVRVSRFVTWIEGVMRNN
T2 sequence (P00747 97-580 partner limits assumed): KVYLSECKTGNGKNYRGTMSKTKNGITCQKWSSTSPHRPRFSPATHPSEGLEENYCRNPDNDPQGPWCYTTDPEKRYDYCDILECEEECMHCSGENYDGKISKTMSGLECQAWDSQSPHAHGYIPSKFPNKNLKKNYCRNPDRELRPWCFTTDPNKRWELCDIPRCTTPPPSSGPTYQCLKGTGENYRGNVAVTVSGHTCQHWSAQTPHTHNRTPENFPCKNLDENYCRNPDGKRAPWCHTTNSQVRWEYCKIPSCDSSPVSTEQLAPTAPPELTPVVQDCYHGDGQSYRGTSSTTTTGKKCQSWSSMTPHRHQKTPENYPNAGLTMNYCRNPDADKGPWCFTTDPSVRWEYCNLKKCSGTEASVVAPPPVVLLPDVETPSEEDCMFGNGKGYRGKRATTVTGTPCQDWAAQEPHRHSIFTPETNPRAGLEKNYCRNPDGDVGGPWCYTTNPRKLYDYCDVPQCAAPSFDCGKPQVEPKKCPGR
T9 sequence (P00750 36-562): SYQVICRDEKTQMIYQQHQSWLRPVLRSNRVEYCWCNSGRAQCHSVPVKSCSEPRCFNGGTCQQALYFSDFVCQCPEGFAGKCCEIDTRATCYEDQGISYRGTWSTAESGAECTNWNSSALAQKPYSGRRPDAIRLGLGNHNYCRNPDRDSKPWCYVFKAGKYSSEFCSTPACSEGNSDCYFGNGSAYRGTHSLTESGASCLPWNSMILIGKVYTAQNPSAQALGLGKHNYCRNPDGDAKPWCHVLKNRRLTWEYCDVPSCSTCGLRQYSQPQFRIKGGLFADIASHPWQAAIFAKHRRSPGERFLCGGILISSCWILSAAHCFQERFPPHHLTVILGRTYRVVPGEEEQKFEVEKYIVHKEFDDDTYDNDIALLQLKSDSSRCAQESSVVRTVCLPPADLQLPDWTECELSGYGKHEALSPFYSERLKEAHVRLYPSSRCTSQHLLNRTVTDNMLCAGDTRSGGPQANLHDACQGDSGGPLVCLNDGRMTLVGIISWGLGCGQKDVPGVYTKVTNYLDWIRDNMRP

One may read the Ki as the dissociation constant of the complex between target and ligand, obtained from inhibition or displacement. Take `CN(C(=O)CC[C@@H](NS(=O)(=O)Cc1ccccc1)C(=O)N1CCC[C@H]1C(=O)NCc1cc(Cl)ccc1CN)C1CCNCC1` [Compound 2.27]: the Ki in [1] is above 50 µM; in [2] it was above 10 µM; in assay [3], 1650 nM; in [4], above 100 µM; on human Factor Xa it was 18 nM; in [5] it was above 100 µM. Further, the Ki in assay [6] was above 100 µM; in assay [7], above 100 µM; in assay [8], above 100 µM; in assay [9], 0.8 nM.

Consider `NCc1ccc(Cl)cc1CNC(=O)CC[C@@H](NS(=O)(=O)Cc1ccccc1)C(=O)N1CCC[C@H]1C(=O)NCc1cc(Cl)ccc1CN` [Compound 2.30], for which the Ki in assay [1] was above 25 µM; in [2], above 5 µM; in [3] it was 432 nM; in assay [4] it was above 80 µM; on human Factor Xa it was 8.6 nM; in [5], above 20 µM. Also, the inhibition constant (Ki) in [6] was above 40 µM; in assay [7] it was above 30 µM; in [8], above 20 µM; in [9], 0.99 nM.

As for `NCc1ccc(Cl)cc1CNC(=O)[C@@H]1CCCN1C(=O)[C@@H](CCC(=O)N1CCNCC1)NS(=O)(=O)Cc1ccccc1` [Compound 2.31], the Ki in assay [1] was above 100 µM; in [2], above 10 µM; in assay [3], 4000 nM; in [4], above 100 µM; on human Factor Xa it was 21 nM; in [5] it was above 100 µM. For the same compound, the Ki is above 100 µM in assay [6], above 100 µM in assay [7], above 20 µM in [8] and 0.48 nM in assay [9].

Turning to `NCc1ccc(Cl)cc1CNC(=O)[C@@H]1CCCN1C(=O)[C@@H](CCC(=O)N1CCC(N)CC1)NS(=O)(=O)Cc1ccccc1` [Compound 2.32], the inhibitory constant (Ki) was above 100 µM in [1]; above 20 µM in assay [2]; 3060 nM in assay [3]; above 100 µM in assay [4]; 33 nM on human Factor Xa; above 10 µM in assay [5]. The Ki in assay [6] was above 100 µM; in assay [7], above 100 µM; in assay [8], above 50 µM; in assay [9], 0.15 nM.

For the compound `NCc1ccc(Cl)cc1CNC(=O)[C@@H]1CCCN1C(=O)[C@@H](CCC(=O)N1CCOCC1)NC(=O)OCc1ccccc1` [Compound 2.33], the Ki was above 30 µM in [1]; above 20 µM in assay [2]; 6060 nM in assay [3]; above 50 µM in assay [4]; 8.8 nM on human Factor Xa; above 40 µM in [5]. Besides, the inhibition constant (Ki) in assay [6] is above 50 µM; in assay [7] it was above 100 µM; in assay [8], above 20 µM; in assay [9], 1.4 nM.

As to `NCc1ccc(Cl)cc1CNC(=O)[C@@H]1CCCN1C(=O)[C@@H](CC(=O)Nc1ccncc1)NS(=O)(=O)Cc1ccccc1` [Compound 2.34], the inhibition constant (Ki) is above 100 µM in assay [1]; above 20 µM in [2]; 1760 nM in [3]; above 100 µM in assay [4]; 21 nM on human Factor Xa; above 100 µM in [5]. In addition, the Ki in [6] was above 100 µM; in assay [7] it was above 100 µM; in [8], above 100 µM; in assay [9], 1.7 nM.

For the compound `NCc1ccc(Cl)cc1CNC(=O)[C@@H]1C[C@H](N)CN1C(=O)[C@@H](CC(=O)N1CCNCC1)NS(=O)(=O)Cc1ccccc1` [Compound 2.35], the Ki was above 100 µM in [1]; above 3 µM in [2]; 351 nM in assay [3]; above 15 µM in assay [4]; 0.79 nM at human Factor Xa; above 50 µM in [5]. Further, the Ki in [6] was above 20 µM; in assay [7], above 100 µM; in [8], 1 µM; in assay [9] it was 4.4 nM.

Take `NCc1ccc(Cl)cc1CNC(=O)[C@@H]1CCCN1C(=O)[C@@H](CC(=O)N1CCCCC1)NS(=O)(=O)Cc1ccccc1` [Compound 2.41]: the Ki in assay [1] is above 100 µM; in [2], 8 µM; in assay [3], 605 nM; in [4], above 80 µM; on human Factor Xa, 0.12 nM; in assay [5], above 40 µM. Moreover, the Ki in assay [6] was above 50 µM; in assay [7], above 50 µM; in [8], above 15 µM; in [9], 0.11 nM.

Consider `NCc1ccc(Cl)cc1CNC(=O)[C@@H]1CCCN1C(=O)[C@@H](CCC(=O)N1CCOCC1)NC(=O)Cc1ccccc1` [Compound 2.42], for which the Ki in assay [1] was above 10 µM; in [2], above 50 µM; in assay [3] it was above 50000 nM; in assay [4] it was above 100 µM; at human Factor Xa, 965 nM; in assay [5], above 20 µM. The inhibitory constant (Ki) in assay [6] is above 100 µM; in [7] it was above 20 µM; in assay [8], above 50 µM; in [9], 88 nM.

Consider `NCc1ccc(Cl)cc1CNC(=O)[C@@H]1CCN1C(=O)[C@@H](CCC(=O)N1CCOCC1)NS(=O)(=O)Cc1ccccc1` [Compound 2.43], for which the Ki is above 100 µM in assay [1]; above 40 µM in assay [2]; 5810 nM in assay [3]; above 80 µM in [4]; 1.7 nM at human Factor Xa; above 10 µM in assay [5]. Moreover, the inhibitory constant (Ki) in assay [6] is above 20 µM; in assay [7] it was above 30 µM; in [8], above 80 µM; in [9], 9.7 nM.

For the compound `NCc1ccc(Cl)cc1CNC(=O)[C@@H]1CCN1C(=O)[C@@H](CC(=O)N1CCOCC1)NS(=O)(=O)Cc1ccccc1` [Compound 2.44], the inhibition constant Ki in assay [1] was above 100 µM; in assay [2] it was above 10 µM; in [3] it was 1830 nM; in [4] it was above 100 µM; at human Factor Xa, 0.87 nM; in assay [5], above 20 µM. For the same compound, the Ki is above 50 µM in assay [6], above 100 µM in [7], above 35 µM in assay [8] and 4 nM in assay [9].

Take `NCc1ccc(Cl)cc1CNC(=O)[C@@H]1CCN1C(=O)[C@@H](CC(=O)N1CCCCC1)NS(=O)(=O)Cc1ccccc1` [Compound 2.45]: the Ki in assay [1] is above 100 µM; in assay [2] it was above 20 µM; in assay [3], 1860 nM; in assay [4] it was above 100 µM; at human Factor Xa, 0.22 nM; in [5] it was above 10 µM. The inhibition constant (Ki) in assay [6] is above 20 µM; in assay [7], above 30 µM; in assay [8], above 20 µM; in assay [9], 0.72 nM.
